The record followed here is ChEMBL document CHEMBL3879908, “Pyrrolidinone carboxamide derivatives” (2014).

This assay has as its target T1, Chemerin-like receptor 1 (Homo sapiens, UniProt Q99788).
T1 sequence (Q99788 whole entry): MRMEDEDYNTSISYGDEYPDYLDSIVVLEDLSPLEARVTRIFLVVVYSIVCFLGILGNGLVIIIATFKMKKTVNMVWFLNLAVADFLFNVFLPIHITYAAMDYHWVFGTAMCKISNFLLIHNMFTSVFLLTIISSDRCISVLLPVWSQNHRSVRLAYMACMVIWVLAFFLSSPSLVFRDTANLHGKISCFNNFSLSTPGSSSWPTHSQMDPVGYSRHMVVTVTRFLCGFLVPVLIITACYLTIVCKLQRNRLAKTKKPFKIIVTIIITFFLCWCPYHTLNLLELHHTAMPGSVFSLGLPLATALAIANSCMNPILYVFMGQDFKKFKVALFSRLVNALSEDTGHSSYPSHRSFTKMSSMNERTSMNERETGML
The assay can be described thus: Displacement of [125I]-chemerin from ChemR23 (unknown origin) transfected in mouse BaF3 cells after 3 hrs by scintillation counting method. It is filed as cell-based. A general note: Displacement assays read how much labelled ligand stays bound in the presence of the test substance.
With `CC[C@@]1(C(=O)Nc2cc(Cl)cc(C(F)(F)F)c2)CN(c2c(C)cccc2C)C(=O)[C@H]1C`, the IC50 is no more than 30 nM. `Cc1cccc(C)c1N1CC(CN2CCCC2)(C(=O)Nc2cc(C3CC3)cc(C(F)(F)F)c2)CC1=O` (centres undefined) yielded an IC50 of no more than 30 nM. For `COCCN(C)C[C@@]1(C(=O)Nc2cc(C#N)cc(C(F)(F)F)c2)CN(c2c(C)cccc2C)C(=O)[C@H]1C` the value was 30 to 300 nM; for `Cc1cccc(C)c1N1C[C@@](CN2CCC2)(C(=O)Nc2cc(C#N)cc(C(F)(F)F)c2)[C@H](C)C1=O`, 30 to 300 nM. For `CCc1cccc(C)c1N1CC(C(=O)Nc2ccc(F)c(C(F)(F)F)c2)CC1=O` (centres undefined) the value was 300 to 6000 nM; for `Cc1cccc(Cl)c1N1CC(C(=O)Nc2cc(C(F)(F)F)cc(C(F)(F)F)c2)CC1=O` (centres undefined), 30 to 300 nM. For `CC(C)C1(C(=O)Nc2cc(C3CC3)cc(C(F)(F)F)c2)CC(=O)N(c2ccccc2Cl)C1` (centres undefined) the value was 30 to 300 nM. On to `Cc1cccc(C)c1N1C[C@](C(=O)Nc2cc(C3CC3)cc(C(F)(F)F)c2)(C(C)C)CC1=O`, for which the IC50 is no more than 30 nM. For `CC[C@@H]1C(=O)N(c2c(C)cccc2C)C[C@@]1(C)C(=O)Nc1cc(C(F)(F)F)cc(C(F)(F)F)c1` the value was no more than 30 nM; for `Cc1cccc(C)c1N1C[C@@](CN(C)CC(C)(C)C)(C(=O)Nc2cc(C(F)(F)F)cc(C(F)(F)F)c2)[C@H](C)C1=O`, no more than 30 nM. For `Cc1cccc(CCO)c1N1CC(C(=O)Nc2cc(C(F)(F)F)cc(C(F)(F)F)c2)(C(C)C)CC1=O` (centres undefined) the value was 300 to 6000 nM; for `Cc1cccc(CN2CCOCC2)c1N1CC(C(=O)Nc2cc(C(F)(F)F)cc(C(F)(F)F)c2)(C(C)C)CC1=O` (centres undefined), 30 to 300 nM; for `Cc1cccc(C)c1N1C[C@@](CN(C)CC2CC2)(C(=O)Nc2cc(C#N)cc(C(F)(F)F)c2)[C@H](C)C1=O`, 30 to 300 nM. For `Cc1cccc(C)c1N1C[C@@](CN(C)CC(F)(F)F)(C(=O)Nc2cc(C#N)cc(C(F)(F)F)c2)[C@H](C)C1=O` the value was no more than 30 nM; for `Cc1ccc(C)c(N2CC(C(=O)Nc3cc(C(F)(F)F)cc(C(F)(F)F)c3)CC2=O)c1` (centres undefined), 30 to 300 nM. Consider `COCCN(C)C[C@@]1(C(=O)Nc2cc(C(F)(F)F)cc(C(F)(F)F)c2)CN(c2c(C)cccc2C)C(=O)[C@H]1C`, for which the IC50 is 30 to 300 nM. For `Cc1cccc(C)c1N1CC(C(=O)Nc2cc(C(F)(F)F)cc(C(F)(F)F)c2)(C2=CCSCC2)CC1=O` (centres undefined) the value was no more than 30 nM; for `Cc1cccc(C)c1N1CC2(C(=O)Nc3cc(C(F)(F)F)cc(C(F)(F)F)c3)CC(O)CC2C1=O` (centres undefined), 30 to 300 nM. Molecule `CC[C@@]1(C(=O)Nc2cc(CN3CCOCC3)cc(C(F)(F)F)c2)CN(c2c(C)cccc2C)C(=O)[C@H]1C` yielded an IC50 of 300 to 6000 nM. For `CCN(CCF)C[C@@]1(C(=O)Nc2cc(C(F)(F)F)cc(C(F)(F)F)c2)CN(c2c(C)cccc2C)C(=O)[C@H]1C` the value was no more than 30 nM. For `Cc1cccc(C)c1N1C[C@@](CC(C)C)(C(=O)Nc2cc(C(F)(F)F)cc(C(F)(F)F)c2)[C@H](C)C1=O` the value was no more than 30 nM; for `Cc1cccc(C)c1N1CC(C(=O)Nc2cc(Cl)cc(Cl)c2)CC1=O` (centres undefined), 30 to 300 nM; for `COCc1cccc(C)c1N1C[C@](C(=O)Nc2cc(C(F)(F)F)cc(C(F)(F)F)c2)(C(C)C)CC1=O`, 30 to 300 nM. For `Cc1cccc(C)c1N1C[C@@](CN2CCOCC2)(C(=O)Nc2cc(C(F)(F)F)cc(C(F)(F)F)c2)[C@H](C)C1=O` the value was 300 to 6000 nM; for `CC[C@@]1(C(=O)Nc2cc(OC3CCC3)cc(C(F)(F)F)c2)CN(c2c(C)cccc2C)C(=O)[C@H]1C`, no more than 30 nM; for `Cc1cccc(C)c1N1CC(CCCO)(C(=O)Nc2cc(C(F)(F)F)cc(C(F)(F)F)c2)CC1=O` (centres undefined), 30 to 300 nM. On to `CCCN(C)C[C@@]1(C(=O)Nc2cc(C(F)(F)F)cc(C(F)(F)F)c2)CN(c2c(C)cccc2C)C(=O)[C@H]1C`, for which the IC50 is no more than 30 nM. For `Cc1cccc(C)c1N1CC(C)(C(=O)Nc2cc(C(F)(F)F)cc(C(F)(F)F)c2)CC1=O` (centres undefined) the value was no more than 30 nM; for `Cc1cccc(C)c1N1CC(C(=O)Nc2cc(C(F)(F)F)cc(C(F)(F)F)c2)(C2=CCOCC2)CC1=O` (centres undefined), no more than 30 nM. On to `Cc1cccc(C)c1N1C[C@@](CN(C)CC2CCC2)(C(=O)Nc2cc(C(F)(F)F)cc(C(F)(F)F)c2)[C@H](C)C1=O`, for which the IC50 lay in the range of 30 to 300 nM. `Cc1cccc(C)c1N1CC2(C(=O)Nc3cc(C(F)(F)F)cc(C(F)(F)F)c3)C[C@H](F)CC2C1=O` (some centres undefined) returned an IC50 of no more than 30 nM. For `Cc1cccc(C)c1N1C[C@@](CN2CCCCC2)(C(=O)Nc2cc(C(F)(F)F)cc(C(F)(F)F)c2)[C@H](C)C1=O` the value was 300 to 6000 nM. With `CC[C@@]1(C(=O)Nc2ccc(C)c(C(F)(F)F)c2)CN(c2c(C)cccc2C)C(=O)[C@H]1C`, the IC50 was in the range of 30 to 300 nM. In the case of `Cc1cccc(C)c1N1C[C@@](CN(C)CCF)(C(=O)Nc2cc(C(F)(F)F)cc(C(F)(F)F)c2)[C@H](C)C1=O`, the IC50 is no more than 30 nM. For `Cc1cccc(C)c1N1CC(C(=O)Nc2cc(C(F)(F)F)cc(C(F)(F)F)c2)(N2CCCC2)CC1=O` (centres undefined) the value was no more than 30 nM. For `Cc1cccc(C)c1N1C[C@](C(=O)Nc2cc(C#N)cc(C(F)(F)F)c2)(C(C)C)CC1=O` the value was no more than 30 nM.

`CC[C@@]1(C(=O)Nc2cc(OC(C)C)cc(C(F)(F)F)c2)CN(c2c(C)cccc2C)C(=O)[C@H]1C` registered an IC50 of no more than 30 nM. For `CCc1cccc(C)c1N1CC(C(=O)Nc2ccc(C)c(C(F)(F)F)c2)CC1=O` (centres undefined) the value was 300 to 6000 nM; for `Cc1cccc(C)c1N1C[C@@](CN(C)C)(C(=O)Nc2cc(C(F)(F)F)cc(C(F)(F)F)c2)[C@H](C)C1=O`, no more than 30 nM; for `CCc1cccc(C)c1N1CC(C(=O)Nc2cccc(Cl)c2)CC1=O` (centres undefined), 300 to 6000 nM. For `Cc1cccc(C)c1N1C[C@@](C(=O)Nc2cc(C(F)(F)F)cc(C(F)(F)F)c2)(C(C)C)[C@H](C)C1=O` the value was no more than 30 nM. For `CCC1(C(=O)Nc2cc(C(F)(F)F)cc(C(F)(F)F)c2)CC(=O)N(c2ccccc2OC)C1` (centres undefined) the value was 300 to 6000 nM; for `Cc1cccc(C)c1N1CC(C(=O)Nc2cc(C(F)(F)F)cc(C(F)(F)F)c2)CC1=O` (centres undefined), no more than 30 nM. For `Cc1cccc(C)c1N1C[C@@](CN2CCCC(F)(F)C2)(C(=O)Nc2cc(C(F)(F)F)cc(C(F)(F)F)c2)[C@H](C)C1=O`, the IC50 is 30 to 300 nM. Consider `CC[C@@]1(C(=O)Nc2cc(OC3CCCC3)cc(C(F)(F)F)c2)CN(c2c(C)cccc2C)C(=O)[C@H]1C`, for which the IC50 is no more than 30 nM. For `Cc1cccc(C)c1N1CC(C(=O)Nc2cc(C(F)(F)F)cc(C(F)(F)F)c2)(C2CCOCC2)CC1=O` (centres undefined) the value was no more than 30 nM.

On to `Cc1cccc(C)c1N1C[C@@](CN(CCF)CC(C)C)(C(=O)Nc2cc(C(F)(F)F)cc(C(F)(F)F)c2)[C@H](C)C1=O`, for which the IC50 was no more than 30 nM.

For the molecule `Cc1cccc(C)c1N1C[C@](C)(C(=O)Nc2cc(C(F)(F)F)cc(C(F)(F)F)c2)[C@H](C)C1=O`, the IC50 was 30 to 300 nM.

As to `CCN(CC)C[C@@]1(C(=O)Nc2cc(Cl)cc(C(F)(F)F)c2)CN(c2c(C)cccc2C)C(=O)[C@H]1C`, the concentration for half-maximal inhibition (IC50) is 30 to 300 nM. For `Cc1cccc(C)c1N1C[C@@](CN2CCO[C@H](C)C2)(C(=O)Nc2cc(C#N)cc(C(F)(F)F)c2)[C@H](C)C1=O` the value was 30 to 300 nM; for `CCN(CC(F)(F)F)C[C@@]1(C(=O)Nc2cc(C#N)cc(C(F)(F)F)c2)CN(c2c(C)cccc2C)C(=O)[C@H]1C`, no more than 30 nM. For `COC(=O)c1cc(NC(=O)C2CC(=O)N(c3c(C)cccc3C)C2)cc(C(F)(F)F)c1` (centres undefined) the value was 30 to 300 nM; for `CCN(CC)C[C@@]1(C(=O)Nc2cc(C(F)(F)F)cc(C(F)(F)F)c2)CN(c2c(C)cccc2C)C(=O)[C@H]1C`, 300 to 6000 nM. Take `Cc1cccc(C)c1N1C[C@@](CN2CCC(F)(F)CC2)(C(=O)Nc2cc(Cl)cc(C(F)(F)F)c2)[C@H](C)C1=O`: the IC50 fell in the range of 30 to 300 nM. Regarding `Cc1cccc(C)c1N1CC(C(=O)Nc2ccc(Cl)cc2Cl)CC1=O` (centres undefined), the IC50 fell in the range of 300 to 6000 nM. Regarding `Cc1cccc(C)c1N1CC(C(=O)Nc2cc(N3CCOCC3)cc(C(F)(F)F)c2)CC1=O` (centres undefined), the IC50 is 30 to 300 nM.

In turn, `COc1cccc(C)c1N1CC(C(=O)Nc2cc(F)cc(F)c2)CC1=O` (centres undefined) displayed an IC50 of 30 to 300 nM.

The molecule `Cc1cccc(C)c1N1CC2(C(=O)Nc3cc(C(F)(F)F)cc(C(F)(F)F)c3)C[C@@H](F)CC2C1=O` (some centres undefined) came in with an IC50 of 30 to 300 nM. For `Cc1ccccc1N1CC(C(=O)Nc2cccc(C(F)(F)F)c2)CC1=O` (centres undefined) the value was 300 to 6000 nM; for `Cc1cccc(C)c1N1CC(C(=O)Nc2cc(F)cc(F)c2)CC1=O` (centres undefined), 300 to 6000 nM; for `Cc1cccc(C)c1N1CC(C(=O)Nc2cc(C#N)cc(C(F)(F)F)c2)CC1=O` (centres undefined), 30 to 300 nM. For `Cc1cccc(C)c1N1C[C@]2(C(=O)Nc3cc(C(F)(F)F)cc(C(F)(F)F)c3)OCC[C@@H]2C1=O` the value was 30 to 300 nM. For `Cc1cccc(C)c1N1C[C@@](CN2CCC(F)(F)C2)(C(=O)Nc2cc(C3CC3)cc(C(F)(F)F)c2)[C@H](C)C1=O` the value was 30 to 300 nM; for `CC[C@@]1(C(=O)Nc2cc(N3CCCC3)cc(C(F)(F)F)c2)CN(c2c(C)cccc2C)C(=O)[C@H]1C`, 30 to 300 nM; for `Cc1cccc(C)c1N1C[C@@](CN2CCCC2)(C(=O)Nc2cc(C(F)(F)F)cc(C(F)(F)F)c2)[C@H](C)C1=O`, 300 to 6000 nM.

In the case of `CC[C@@]1(C(=O)Nc2cc(C(F)(F)F)cc(C(F)(F)F)c2)CN(c2c(C)cccc2C)C(=O)[C@H]1C`, the IC50 is 30 to 300 nM. Turning to `CO[C@@H]1CC2C(=O)N(c3c(C)cccc3C)CC2(C(=O)Nc2cc(C(F)(F)F)cc(C(F)(F)F)c2)C1` (some centres undefined), the IC50 is no more than 30 nM. For `Cc1cccc(C)c1N1C[C@@](CN2CCOCC2)(C(=O)Nc2cc(C#N)cc(C(F)(F)F)c2)[C@H](C)C1=O` the value was 30 to 300 nM. For `Cc1cccc(C)c1N1C[C@]2(C(=O)Nc3cc(C(F)(F)F)cc(C(F)(F)F)c3)CC=CC[C@@H]2C1=O` the value was 300 to 6000 nM.

As a reminder, the IC50 is the concentration that inhibits the measured activity by half. A lower IC50 goes with higher potency.
